Results from ChEMBL document CHEMBL4145667, “Targeting Tumor Associated Carbonic Anhydrases IX and XII: Highly Isozyme Selective Coumarin and Psoralen Inhibitors” (ACS Med Chem Lett, 2018).

Experiments:
Carbonic anhydrase 1 = Carbonic anhydrase 1 (Homo sapiens, UniProt P00915); experiment: Binding affinity to human carbonic anhydrase 1 by stopped flow CO2 hydration method
Carbonic anhydrase 12 = Carbonic anhydrase 12 (Homo sapiens, UniProt O43570); experiment: Binding affinity to human carbonic anhydrase 12 by stopped flow CO2 hydration method
Carbonic anhydrase 2 = Carbonic anhydrase 2 (Homo sapiens, UniProt P00918); experiment: Binding affinity to human carbonic anhydrase 2 by stopped flow CO2 hydration method
Carbonic anhydrase 9 = Carbonic anhydrase 9 (Homo sapiens, UniProt Q16790); experiment: Binding affinity to human carbonic anhydrase 9 by stopped flow CO2 hydration method

Chain of Carbonic anhydrase 1 (P00915 whole entry): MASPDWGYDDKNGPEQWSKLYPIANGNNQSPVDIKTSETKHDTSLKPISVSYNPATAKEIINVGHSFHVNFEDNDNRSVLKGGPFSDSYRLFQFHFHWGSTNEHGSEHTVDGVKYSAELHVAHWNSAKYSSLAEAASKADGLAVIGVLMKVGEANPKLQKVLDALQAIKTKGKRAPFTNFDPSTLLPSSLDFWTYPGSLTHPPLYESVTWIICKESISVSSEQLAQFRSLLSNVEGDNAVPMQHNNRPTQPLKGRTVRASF
Chain of Carbonic anhydrase 12 (O43570 whole entry): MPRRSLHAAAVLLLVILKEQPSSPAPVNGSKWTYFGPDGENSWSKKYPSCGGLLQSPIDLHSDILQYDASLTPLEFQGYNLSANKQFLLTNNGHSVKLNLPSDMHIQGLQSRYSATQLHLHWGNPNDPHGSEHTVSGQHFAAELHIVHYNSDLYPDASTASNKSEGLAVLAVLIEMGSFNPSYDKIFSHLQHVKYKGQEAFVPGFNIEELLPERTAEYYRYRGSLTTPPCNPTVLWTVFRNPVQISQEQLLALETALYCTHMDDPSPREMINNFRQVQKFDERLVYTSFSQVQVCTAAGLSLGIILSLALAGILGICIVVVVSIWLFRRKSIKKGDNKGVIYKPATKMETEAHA

| SMILES | Ki (Carbonic anhydrase 1) [nM] | Ki (Carbonic anhydrase 12) [nM] | Ki (Carbonic anhydrase 2) [nM] | Ki (Carbonic anhydrase 9) [nM] |
| --- | --- | --- | --- | --- |
| Cc1c(CC(=O)O)c(=O)oc2cc3occ(-c4ccc(F)cc4)c3cc12 | > 10000 | 7.4 | > 10000 | 17.7 |
| Cc1c(CC(=O)O)c(=O)oc2cc3occ(-c4ccccc4)c3cc12 | > 10000 | 9.4 | > 10000 | 17.5 |
| Cc1c(CC(=O)O)c(=O)oc2cc3occ(-c4ccc(Cl)cc4)c3cc12 | > 10000 | – | > 10000 | 94.7 |
| COC(=O)Cc1c(C)c2ccc(OCC(=O)c3ccc(C)cc3)cc2oc1=O | > 10000 | – | > 10000 | 123 |
| Cc1ccc(-c2coc3cc4oc(=O)c(CC(=O)O)c(C)c4cc23)cc1 | > 10000 | – | > 10000 | 23 |
| COC(=O)Cc1c(C)c2ccc(OCC(=O)c3ccccc3)cc2oc1=O | > 10000 | – | > 10000 | 89.7 |
| COC(=O)Cc1c(C)c2ccc(OCC(=O)c3ccc(Cl)cc3)cc2oc1=O | > 10000 | – | > 10000 | 23.6 |
| COC(=O)Cc1c(C)c2ccc(OCC(=O)c3ccc(F)cc3)cc2oc1=O | > 10000 | – | > 10000 | 84.7 |

These reach a lower Ki (Carbonic anhydrase 1). Values come first.

| Ki (Carbonic anhydrase 1) [nM] | Ki (Carbonic anhydrase 12) [nM] | Ki (Carbonic anhydrase 2) [nM] | Ki (Carbonic anhydrase 9) [nM] | SMILES |
| --- | --- | --- | --- | --- |
| 7150 | – | 79.5 | 108 | Cc1c(CC(=O)Nc2ccc(S(N)(=O)=O)cc2)c(=O)oc2cc3occ(-c4ccc(F)cc4)c3cc12 |
| 7070 | – | 560 | 91.6 | Cc1ccc(-c2coc3cc4oc(=O)c(CC(=O)Nc5ccc(S(N)(=O)=O)cc5)c(C)c4cc23)cc1 |
| 7020 | – | 46.6 | 16.5 | Cc1c(CC(=O)Nc2ccc(S(N)(=O)=O)cc2)c(=O)oc2cc3occ(-c4ccccc4)c3cc12 |
| 6830 | – | 55.1 | 17.8 | Cc1c(CC(=O)Nc2ccc(S(N)(=O)=O)cc2)c(=O)oc2cc3occ(-c4ccc(Cl)cc4)c3cc12 |
